From patent US8889902B2, “Acetylsalicylic acid salts” (priority 2009, dated 2014) come the findings set out here.

Several values for one entry are separate records, joined by “and”; a condition that tells them apart may be missing. Identical values can stand only once. Marks after values point to notes of the source that are not given here.

For experiment [1], the system named is abdominal constrictions in writhing test model. In words: Mouse writhing test (acetic acid i.p.). It is filed as in vivo, mice. The conditions noted are these: for No. of constrictions: 10 min observation. The protocol:
In investigating the analgesic, anti-inflammatory and antipyretic effects of MASA methods widely used in evaluation of NSAIDs were employed. Mongrel white laboratory mice and Wistar rats were used in experiments. Animals were kept in groups of 7-8 in adequate cages in climatized rooms at 22±1° C., relative humidity 60±5% and 12/12-hour light/darkness cycle with free access to feed and water.
Aqueous solutions of test substances were prepared ex tempore. In each experimental series a control group was used that received an identical volume of water p.o.
Nociceptive reaction was evaluated by chemical irritation method—writhing test (Charaborty A et al, Indian J of Pharmacology 2004; 36(3):148-150). Animals received i.p. 0.25 ml of 0.75% aqueous acetic acid solution: After the injection animals were placed separately in special boxes and observed for 10 minutes. The number of abdominal constrictions was registered. Analgesic activity was manifested by reduction of the number of abdominal constrictions in the 10 minutes period. Test substances were introduced 30 min before the irritating agent. The level of analgesia was expressed as analgesic index calculated as follows: A=(Cc−Ct)/Cc·100%, where A—Analgesic index Cc—number of contractions in control group, Ct—number of contractions in the test group.

Experiment [2] has as its system carrageneen paw oedema. The experiment is described as follows: Acute inflammatory oedema model (carrageneen test). It is filed as in vivo, rats. Particulars: 4 h. The protocol:
Experiments were conducted using carrageneen test (Winter C et al, Proc Soc Exptl Biol and Med 1962; III(3):544-547. Wei Jia et al, Journal of Ethnopharmacology 2003(89):139-141; Sutharson Lingadurai et al, African Journal of traditional, complementary and alternative medicines, 2007, 4(4):411-416) on 42 rats with body mass of 226-274 g. Single injection of carrageneen (Sigma) solution (1%) in saline (0.1 ml) was introduced in rat hind leg paw. Test substances were introduced p.o. (through catheter into rat stomach) 30 min. after the injection of carrageneen. The volume of paw was measured by oncometer at baseline and 4 hours after the injection of carrageneen.
The percentage of prevention (inhibition of oedema) was calculated according to formula: P(%)=(1−Vo/Vc)×100, where P—Prevention in % (inhibition of oedema) Vo—difference between the paw volume at baseline and at experimental conditions; Vc—analogical difference in control group.

The test system of experiment [3] is platelet aggregation. In words: Platelet aggregation in vitro, whole blood impedance aggregometry (Multiplate). It is filed as cell-based, healthy donor. The protocol:
Platelet aggregation was studied using whole blood impedance aggregometry on Multiplate (Multiple Platelet Function Analyzer, Dynabyte Medical, Germany) (Toth O et al, Thromb Haemost 2006; 96:781-788. […] Blood samples for in vitro experiment were collected from healthy donor B. […] In the ex vivo experiment blood was collected into plastic tubes covered with hirudin (Dynabyte Medical, Germany) from narcotized rats that were treated for 3 previous days with test substances p.o. The measurements were performed according to modified Dynabyte Medical protocol. […] After 5 min incubation and stirring at 37° C., measurements were initiated by adding of the appropriate agonist solution (sourced from Dynabyte Medical, Germany): 1) adenosine diphosphate (ADP)-ADP-Test. ADP stimulates platelet activation by the ADP receptors (P2Y 12 and other). […] 3) ADP HS test (prostaglandin E1 in combination with ADP). […] Aggregation curves were recorded for 6 min. and analyzed using Dynabyte Medical software. We calculated the following parameters of platelet aggregation: […] It is affected by the total height of the aggregation curve as well as by its slope and is best suited to express the overall platelet activity.

Experiment [4] relates to rat ear skin temperature. The experiment is described as follows: Ear skin temperature rise caused by NA, s.c. administration. It is filed as in vivo, Wistar rats. The procedure: (§1) Male Wistar rats (280-330 g) were used. Animals were held in groups of 6 in climatized rooms at 22±1° C., relative humidity 60±5%, and 12/12-hour light/dark cycle with free access to drinking water and feed (R3—Lactamin AB, Sweden). For registration of changes in skin temperature of intact rats contactless temperature recording method was used (Papaliodis D et al, Br J Pharmacol 2008; 153:1382-1387). Temperature measurements were performed with a hand-held infrared thermometer (Model Proscan 510, TFA-Dostman). Animals were habituated to handling and to the infrared probe for 3 days before use. Temperature readings from the dorsal side of each ear were recorded without anaesthesia at beginning and during experiment. The ear temperature was measured every 5 min. for a period of up to 60 min. The animals were returned to their cages between measurements. NA, MD and MASA were dissolved in saline and pH was corrected immediately before usage. LA (MK 0524, Cayman Chemicals) was first dissolved in DMSO and then freshly diluted with 0.9% NaCl, on each day of the experiment. The rate of NA and LA combination was based on Summary of Product Characteristics for Tredaptive™ (nicotinic acid/laropiprant) 1000 mg/20 mg modified-release tablets.
The influence of LA, MD or MASA alone on skin temperature was checked. Each investigated compound was introduced s.c. simultaneously with NA as LA+NA [0] or 30 min in advance to NA as LA+NA [30].

For experiment [5], the system named is rat ear skin temperature. The experiment is described as follows: Ear skin temperature rise caused by NA, p.o. administration. It is filed as in vivo, Wistar rats. Particulars: for Max incr. %: NA alone = 100. The procedure: as §1
9.2.3. Investigation of the Effect of MASA/NA and MD/NA Combination on Skin Temperature at Simultaneous or 45 Min Advance p.o. Administration

Setting [6] is: 100 mg/kg p.o. 30 min after carrageneen.
[7] abbreviates: 75 mg/kg p.o. 30 min after carrageneen.
Where [8] appears, read: 150 mg/kg p.o. 30 min after carrageneen.
[9] abbreviates: 300 mg/kg p.o. 30 min after carrageneen.

For the compound `CC(=O)Oc1ccccc1C(=O)O` [ASA, acetylsalicylic acid], in experiment [1] (50 mg/kg p.o.), the Analgesic index stood at 7.1 and the No. of constrictions is given as 5.75 ± 1.32***^$$$. For the same compound, the “Animals with positive reaction/total number” value in experiment [1] (50 mg/kg p.o. 30 min before acetic acid) is listed as 6/8. In experiment [2] (setting [6]), the “Index, % (inhibition of oedema)” value was found to be 66% and the “Volume of paw after injection of carrageneen” value (from here on “Volume of paw”) was found to be 1.97 ± 0.10 mL. In addition, in experiment [3] (AA induced, 10^−4), the AUC was 450 ± 24.8^2#@ AU*min and 450 ± 24.8^3a@ AU*min; the Amax is 103.1 ± 5.9^2#@ AU and 103.1 ± 5.9^2a@ AU. In addition, in experiment [3] (ADP induced, 10^−4), the AUC is given as 883 ± 50.3 AU*min and the Amax amounted to 151.7 ± 9.3 AU. Besides, in experiment [3] (PGE1 + ADP induced, 10^−4), the AUC came out at 961 ± 35.0 AU*min and the Amax amounted to 162.5 ± 8.7 AU.
With `CC(=O)Oc1ccccc1C(=O)[O-].C[N+](C)(C)NCCC(=O)O` [MASA, 3-(trimethylammonioamino)propanoate Acetylsalicylic Acid Addition Salt], the Analgesic index turned out to be 4.5 in experiment [1] (75 mg/kg p.o.), 5.2 in experiment [1] (150 mg/kg p.o.) and 7.3 in experiment [1] (300 mg/kg p.o.). Moreover, the “Animals with positive reaction/total number” value in experiment [1] (75 mg/kg p.o. 30 min before acetic acid) is listed as 8/8; in experiment [1] (150 mg/kg p.o. 30 min before acetic acid) it was 7/8; in experiment [1] (300 mg/kg p.o. 30 min before acetic acid) it was 5/8. Also, the No. of constrictions was 12.13 ± 0.61**^$$ in experiment [1] (75 mg/kg p.o.), 10.63 ± 1.10**^$$ in experiment [1] (150 mg/kg p.o.) and 6.00 ± 1.39***^$$$ in experiment [1] (300 mg/kg p.o.). The “Index, % (inhibition of oedema)” value in experiment [2] (setting [7]) is listed as 18%; in experiment [2] (setting [8]), 93%; in experiment [2] (setting [9]) it was 91%. The “Volume of paw” value was 2.51 ± 0.11 mL in experiment [2] (setting [7]), 1.54 ± 0.15***^$& ml in experiment [2] (setting [8]) and 1.79 ± 0.15 mL in experiment [2] (setting [9]). Also, the AUC was 298 ± 25.3^3#&&$ AU*min and 298 ± 25.3^3aa& AU*min in experiment [3] (AA induced, 10^−4); 832 ± 54.1^1 AU*min in experiment [3] (AA induced, 10^−5); 798 ± 38.9^1 AU*min in experiment [3] (ADP induced, 10^−4); 828 ± 63.5 AU*min in experiment [3] (ADP induced, 10^−5); 533 ± 20.3^3$&&& AU*min in experiment [3] (PGE1 + ADP induced, 10^−4); 595 ± 45.3^1 AU*min in experiment [3] (PGE1 + ADP induced, 10^−5). Moreover, the Amax was 66.1 ± 6.8^3#&&$ AU and 66.1 ± 6.8^3aa& AU in experiment [3] (AA induced, 10^−4); 148.4 ± 5.7^1 AU in experiment [3] (AA induced, 10^−5); 140.5 ± 7.2^1 AU in experiment [3] (ADP induced, 10^−4); 153.5 ± 8.8 AU in experiment [3] (ADP induced, 10^−5); 87.7 ± 4.6^3$&&& AU in experiment [3] (PGE1 + ADP induced, 10^−4); 99.3 ± 4.8^2 AU in experiment [3] (PGE1 + ADP induced, 10^−5). The Maximum temperature in experiment [4] (45 mg/kg s.c. alone) was 29.2 ± 0.38^$$$ ° C. Also, the “Temp. 15 min” value in experiment [5] (MASA 150 mg/kg p.o. alone) was 29.9 ± 0.33^$$ ° C. Further, in experiment [5] (MASA 150 mg/kg p.o. alone), the “Temp. 30 min” value is recorded as 29.5 ± 0.35^$$$ ° C. Moreover, the “Temp. 45 min” value in experiment [5] (MASA 150 mg/kg p.o. alone) is given as 29.6 ± 0.39^$$ ° C. In experiment [5] (MASA 150 mg/kg p.o. alone), the Max incr. % turned out to be 6%.
Turning to `C[N+](C)(C)NCCC(=O)[O-].O.O` [MD, 3-(Trimethylammonioamino)propanoate dihydrate], in experiment [1] (100 mg/kg p.o.), the Analgesic index is given as −0.4 and the No. of constrictions came to 22.10 ± 1.47. Moreover, the “Animals with positive reaction/total number” value in experiment [1] (100 mg/kg p.o. 30 min before acetic acid) was 8/8. In addition, in experiment [2] (setting [6]), the “Index, % (inhibition of oedema)” value amounted to 43% and the “Volume of paw” value is 2.13 ± 0.12 mL. Further, in experiment [3] (AA induced, 10^−4), the AUC was 1050 ± 37.6^& AU*min and the Amax is on record as 179.5 ± 7.3^& AU. For the same compound, in experiment [3] (ADP induced, 10^−4), the AUC worked out at 869 ± 36.3 AU*min and the Amax stood at 153.2 ± 6.1 AU. In addition, in experiment [3] (PGE1 + ADP induced, 10^−4), the AUC was 587 ± 37.4^2&& AU*min and the Amax was 101.4 ± 2.2^2&& AU. Further, the Maximum temperature in experiment [4] (45 mg/kg s.c. alone) is on record as 29.6 ± 0.31^$$$ ° C. Moreover, in experiment [5] (MD 100 mg/kg p.o. alone), the “Temp. 15 min” value is recorded as 30.1 ± 0.39^$$ ° C, the “Temp. 30 min” value is given as 29.8 ± 0.38^$$$ ° C, the “Temp. 45 min” value is recorded as 30.0 ± 0.34^$$ ° C and the Max incr. % stood at 6%.
Regarding `O=C(O)c1cccnc1` [NA, nicotinic acid], in experiment [3] (AA induced, 10^−4), the AUC came to 1010 ± 41.7 AU*min and the Amax is 161.1 ± 9.4 AU. In experiment [3] (ADP induced, 10^−4), the AUC is listed as 859 ± 62.5 AU*min and the Amax is 148.0 ± 5.2^1 AU. Moreover, in experiment [3] (PGE1 + ADP induced, 10^−4), the AUC is reported as 862 ± 51.9 AU*min and the Amax is listed as 146.7 ± 8.6 AU. Moreover, the Maximum temperature in experiment [4] (NA 15 mg/kg s.c.) was 32.2 ± 0.42 °C. Further, in experiment [4] (NA 15 mg/kg s.c., at 10 min), the “maximal temperature increase from baseline” value turned out to be 2.32±0.37 °C and the “maximal temperature increase in comparison with Solvent group” value is on record as 2.57±0.43. Also, in experiment [4] (NA 15 mg/kg s.c., effect of NA = 100), the “Increase, %” value is on record as 100%. Further, in experiment [5] (NA 40 mg/kg p.o.), the “Temp. 15 min” value was 32.3 ± 0.46 °C, the “Temp. 30 min” value was 33.1 ± 0.41 °C, the “Temp. 45 min” value came to 32.4 ± 0.48 °C and the Max incr. % is on record as 100%.
